In ChEMBL document CHEMBL4507293 (2021):

How the values were obtained:
[1] = test system: Tyrosine-protein kinase ABL1 (Homo sapiens), P00519 [F317I]; conditions: Compound concentration 100.0 nM
[2] = test system: Tyrosine-protein kinase ABL1 (Homo sapiens), P00519 [T315I]; conditions: Compound concentration 100.0 nM
[3] = molecular target: Ankyrin repeat and protein kinase domain-containing protein 1 (Homo sapiens) (UniProt Q8NFD2); conditions: Compound concentration 100.0 nM
[4] = molecular target: Bone morphogenetic protein receptor type-1B (Homo sapiens) (UniProt O00238); conditions: Compound concentration 100.0 nM
[5] = molecular target: Bone morphogenetic protein receptor type-2 (Homo sapiens) (UniProt Q13873); conditions: Compound concentration 100.0 nM
[6] = molecular target: Serine/threonine-protein kinase BRSK1 (Homo sapiens) (UniProt Q8TDC3); conditions: Compound concentration 100.0 nM
[7] = molecular target: Calcium/calmodulin-dependent protein kinase type II subunit delta (Homo sapiens) (UniProt Q13557); conditions: Compound concentration 100.0 nM
[8] = molecular target: Cyclin-dependent kinase 19 (Homo sapiens) (UniProt Q9BWU1); conditions: Compound concentration 100.0 nM
Chain of Cyclin-dependent kinase 19 (Homo sapiens) (Q9BWU1 whole entry): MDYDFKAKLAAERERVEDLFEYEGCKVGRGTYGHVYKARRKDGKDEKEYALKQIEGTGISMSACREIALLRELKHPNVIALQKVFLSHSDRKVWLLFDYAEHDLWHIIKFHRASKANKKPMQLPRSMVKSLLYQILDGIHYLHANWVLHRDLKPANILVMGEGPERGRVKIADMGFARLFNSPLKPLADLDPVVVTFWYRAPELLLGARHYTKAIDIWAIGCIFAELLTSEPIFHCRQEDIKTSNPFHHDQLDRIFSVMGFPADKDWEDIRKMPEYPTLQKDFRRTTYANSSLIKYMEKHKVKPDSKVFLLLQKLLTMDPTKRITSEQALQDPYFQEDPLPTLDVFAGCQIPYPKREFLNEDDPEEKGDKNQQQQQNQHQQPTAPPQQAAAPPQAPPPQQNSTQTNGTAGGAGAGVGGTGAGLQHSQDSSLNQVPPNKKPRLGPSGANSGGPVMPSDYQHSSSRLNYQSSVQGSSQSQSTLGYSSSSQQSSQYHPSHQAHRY

[9] = molecular target: Cyclin-dependent kinase 4 (Homo sapiens) (UniProt P11802); conditions: Compound concentration 100.0 nM
[10] = molecular target: Cyclin-dependent kinase-like 1 (Homo sapiens) (UniProt Q00532); conditions: Compound concentration 100.0 nM
[11] = molecular target: Dual specificity protein kinase CLK1 (Homo sapiens) (UniProt P49759); conditions: Compound concentration 100.0 nM
[12] = molecular target: Casein kinase I isoform gamma-1 (Homo sapiens) (UniProt Q9HCP0); conditions: Compound concentration 100.0 nM
[13] = molecular target: Casein kinase II subunit alpha (Homo sapiens) (UniProt P68400); conditions: Compound concentration 100.0 nM
[14] = molecular target: Epidermal growth factor receptor (Homo sapiens) (UniProt P00533); conditions: Compound concentration 100.0 nM
[15] = test system: Epidermal growth factor receptor (Homo sapiens), P00533 [UNDEFINED MUTATION]; conditions: Compound concentration 100.0 nM
[16] = test system: Epidermal growth factor receptor (Homo sapiens), P00533 [L861Q]; conditions: Compound concentration 100.0 nM
[17] = molecular target: Ephrin type-B receptor 1 (Homo sapiens) (UniProt P54762); conditions: Compound concentration 100.0 nM
[18] = molecular target: Fibroblast growth factor receptor 3 (Homo sapiens) (UniProt P22607); conditions: Compound concentration 100.0 nM
[19] = molecular target: Receptor-type tyrosine-protein kinase FLT3 (Homo sapiens) (UniProt P36888); conditions: Compound concentration 100.0 nM
[20] = molecular target: Tyrosine-protein kinase FRK (Homo sapiens) (UniProt P42685); conditions: Compound concentration 100.0 nM
[21] = molecular target: Interleukin-1 receptor-associated kinase 1 (Homo sapiens) (UniProt P51617); conditions: Compound concentration 100.0 nM
Chain of Interleukin-1 receptor-associated kinase 1 (Homo sapiens) (P51617 whole entry, looked up): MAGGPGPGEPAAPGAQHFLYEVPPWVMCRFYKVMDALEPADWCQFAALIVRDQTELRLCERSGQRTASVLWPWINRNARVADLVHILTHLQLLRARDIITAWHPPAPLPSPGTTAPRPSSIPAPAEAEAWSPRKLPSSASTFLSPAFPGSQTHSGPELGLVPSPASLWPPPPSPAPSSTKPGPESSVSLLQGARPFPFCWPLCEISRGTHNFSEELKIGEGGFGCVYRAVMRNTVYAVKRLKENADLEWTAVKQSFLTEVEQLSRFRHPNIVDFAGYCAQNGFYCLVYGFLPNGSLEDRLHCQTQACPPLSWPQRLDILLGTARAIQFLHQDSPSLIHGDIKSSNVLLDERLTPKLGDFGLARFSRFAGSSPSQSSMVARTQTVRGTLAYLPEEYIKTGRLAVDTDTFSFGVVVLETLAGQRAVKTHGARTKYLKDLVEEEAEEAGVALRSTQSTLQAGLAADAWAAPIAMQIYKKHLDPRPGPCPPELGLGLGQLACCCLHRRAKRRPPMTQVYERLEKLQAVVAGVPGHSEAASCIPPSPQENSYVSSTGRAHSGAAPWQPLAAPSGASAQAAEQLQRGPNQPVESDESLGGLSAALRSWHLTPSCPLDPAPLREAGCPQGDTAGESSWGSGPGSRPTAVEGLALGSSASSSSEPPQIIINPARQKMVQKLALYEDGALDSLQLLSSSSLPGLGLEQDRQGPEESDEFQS

[22] = molecular target: Tyrosine-protein kinase ITK/TSK (Homo sapiens) (UniProt Q08881); conditions: Compound concentration 100.0 nM
[23] = molecular target: Serine/threonine-protein kinase 10 (Homo sapiens) (UniProt O94804); conditions: Compound concentration 100.0 nM
[24] = molecular target: Myosin light chain kinase (Homo sapiens) (UniProt Q32MK0); conditions: Compound concentration 100.0 nM
Chain of Myosin light chain kinase (Homo sapiens) (Q32MK0 whole entry): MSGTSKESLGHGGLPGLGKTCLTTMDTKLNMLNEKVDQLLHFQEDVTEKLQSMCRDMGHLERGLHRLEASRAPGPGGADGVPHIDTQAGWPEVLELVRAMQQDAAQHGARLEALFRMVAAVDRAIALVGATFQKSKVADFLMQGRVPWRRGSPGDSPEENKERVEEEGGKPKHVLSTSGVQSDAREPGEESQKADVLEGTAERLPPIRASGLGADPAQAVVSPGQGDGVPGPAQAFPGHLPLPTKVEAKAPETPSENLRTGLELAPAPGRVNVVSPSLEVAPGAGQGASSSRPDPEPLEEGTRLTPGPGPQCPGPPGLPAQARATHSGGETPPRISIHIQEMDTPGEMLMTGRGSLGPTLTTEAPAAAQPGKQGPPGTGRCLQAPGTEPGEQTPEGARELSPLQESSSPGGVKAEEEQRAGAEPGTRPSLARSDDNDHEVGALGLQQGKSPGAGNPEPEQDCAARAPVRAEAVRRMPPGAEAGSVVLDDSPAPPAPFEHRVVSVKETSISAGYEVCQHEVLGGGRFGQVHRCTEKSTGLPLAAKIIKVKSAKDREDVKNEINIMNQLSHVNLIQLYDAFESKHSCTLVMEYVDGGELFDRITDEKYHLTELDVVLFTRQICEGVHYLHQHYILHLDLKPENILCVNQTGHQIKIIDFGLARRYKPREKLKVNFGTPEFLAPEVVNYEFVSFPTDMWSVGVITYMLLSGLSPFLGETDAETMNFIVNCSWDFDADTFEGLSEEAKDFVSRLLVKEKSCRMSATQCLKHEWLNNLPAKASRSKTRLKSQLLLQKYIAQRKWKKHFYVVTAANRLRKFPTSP

[25] = molecular target: Myosin-IIIa (Homo sapiens) (UniProt Q8NEV4); conditions: Compound concentration 100.0 nM
[26] = molecular target: Serine/threonine-protein kinase PAK 6 (Homo sapiens) (UniProt Q9NQU5); conditions: Compound concentration 100.0 nM
[27] = molecular target: Calcium-dependent protein kinase 1 (Plasmodium falciparum) (UniProt P62344); conditions: Compound concentration 100.0 nM
[28] = molecular target: Phosphorylase b kinase gamma catalytic chain, skeletal muscle/heart isoform (Homo sapiens) (UniProt Q16816); conditions: Compound concentration 100.0 nM
[29] = molecular target: Phosphatidylinositol 5-phosphate 4-kinase type-2 beta (Homo sapiens) (UniProt P78356); conditions: Compound concentration 100.0 nM
Chain of Phosphatidylinositol 5-phosphate 4-kinase type-2 beta (Homo sapiens) (P78356 whole entry): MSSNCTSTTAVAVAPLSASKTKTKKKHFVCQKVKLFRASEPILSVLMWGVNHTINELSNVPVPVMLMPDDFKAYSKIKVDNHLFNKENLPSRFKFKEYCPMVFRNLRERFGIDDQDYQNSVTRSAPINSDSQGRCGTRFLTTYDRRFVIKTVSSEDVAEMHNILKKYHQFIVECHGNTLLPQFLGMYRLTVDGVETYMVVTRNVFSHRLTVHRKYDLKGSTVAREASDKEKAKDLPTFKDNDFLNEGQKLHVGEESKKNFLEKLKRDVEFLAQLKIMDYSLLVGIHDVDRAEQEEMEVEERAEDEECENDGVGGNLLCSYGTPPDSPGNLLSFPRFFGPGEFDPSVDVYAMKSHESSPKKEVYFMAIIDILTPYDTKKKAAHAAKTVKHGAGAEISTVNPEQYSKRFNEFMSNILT

[30] = molecular target: Ribosomal protein S6 kinase alpha-5 (Homo sapiens) (UniProt O75582); conditions: Compound concentration 100.0 nM
Chain of Ribosomal protein S6 kinase alpha-5 (Homo sapiens) (O75582 whole entry, looked up): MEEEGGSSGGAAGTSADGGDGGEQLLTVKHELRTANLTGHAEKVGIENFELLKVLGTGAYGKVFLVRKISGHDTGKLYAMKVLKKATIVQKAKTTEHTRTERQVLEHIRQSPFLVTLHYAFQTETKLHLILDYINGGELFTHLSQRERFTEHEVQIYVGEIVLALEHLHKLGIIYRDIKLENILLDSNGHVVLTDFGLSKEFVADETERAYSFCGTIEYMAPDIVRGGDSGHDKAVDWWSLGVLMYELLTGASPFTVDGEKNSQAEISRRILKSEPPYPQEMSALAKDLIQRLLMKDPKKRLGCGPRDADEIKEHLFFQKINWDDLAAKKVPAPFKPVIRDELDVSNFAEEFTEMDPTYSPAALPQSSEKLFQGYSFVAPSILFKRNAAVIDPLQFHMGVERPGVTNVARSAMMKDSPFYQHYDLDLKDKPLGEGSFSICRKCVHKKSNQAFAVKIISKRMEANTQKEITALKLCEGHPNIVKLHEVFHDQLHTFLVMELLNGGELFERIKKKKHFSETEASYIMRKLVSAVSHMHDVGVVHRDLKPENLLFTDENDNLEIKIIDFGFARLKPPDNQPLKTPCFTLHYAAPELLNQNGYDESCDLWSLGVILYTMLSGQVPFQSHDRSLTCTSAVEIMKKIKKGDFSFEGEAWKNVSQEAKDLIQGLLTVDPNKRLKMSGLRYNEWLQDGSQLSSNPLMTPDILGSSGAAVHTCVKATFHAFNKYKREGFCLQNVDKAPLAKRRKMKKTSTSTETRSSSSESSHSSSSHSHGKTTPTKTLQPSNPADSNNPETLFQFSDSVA

[31] = molecular target: Ribosomal protein S6 kinase beta-1 (Homo sapiens) (UniProt P23443); conditions: Compound concentration 100.0 nM
[32] = molecular target: Uncharacterized serine/threonine-protein kinase SBK3 (Homo sapiens) (UniProt P0C264); conditions: Compound concentration 100.0 nM
[33] = molecular target: Mitogen-activated protein kinase kinase kinase 7 (Homo sapiens) (UniProt O43318); conditions: Compound concentration 100.0 nM
[34] = molecular target: Serine/threonine-protein kinase TAO3 (Homo sapiens) (UniProt Q9H2K8); conditions: Compound concentration 100.0 nM
[35] = molecular target: Serine/threonine-protein kinase tousled-like 1 (Homo sapiens) (UniProt Q9UKI8); conditions: Compound concentration 100.0 nM
[36] = molecular target: High affinity nerve growth factor receptor (Homo sapiens) (UniProt P04629); conditions: Compound concentration 100.0 nM
[37] = molecular target: NT-3 growth factor receptor (Homo sapiens) (UniProt Q16288); conditions: Compound concentration 100.0 nM
Chain of NT-3 growth factor receptor (Homo sapiens) (Q16288 32-839 limits assumed): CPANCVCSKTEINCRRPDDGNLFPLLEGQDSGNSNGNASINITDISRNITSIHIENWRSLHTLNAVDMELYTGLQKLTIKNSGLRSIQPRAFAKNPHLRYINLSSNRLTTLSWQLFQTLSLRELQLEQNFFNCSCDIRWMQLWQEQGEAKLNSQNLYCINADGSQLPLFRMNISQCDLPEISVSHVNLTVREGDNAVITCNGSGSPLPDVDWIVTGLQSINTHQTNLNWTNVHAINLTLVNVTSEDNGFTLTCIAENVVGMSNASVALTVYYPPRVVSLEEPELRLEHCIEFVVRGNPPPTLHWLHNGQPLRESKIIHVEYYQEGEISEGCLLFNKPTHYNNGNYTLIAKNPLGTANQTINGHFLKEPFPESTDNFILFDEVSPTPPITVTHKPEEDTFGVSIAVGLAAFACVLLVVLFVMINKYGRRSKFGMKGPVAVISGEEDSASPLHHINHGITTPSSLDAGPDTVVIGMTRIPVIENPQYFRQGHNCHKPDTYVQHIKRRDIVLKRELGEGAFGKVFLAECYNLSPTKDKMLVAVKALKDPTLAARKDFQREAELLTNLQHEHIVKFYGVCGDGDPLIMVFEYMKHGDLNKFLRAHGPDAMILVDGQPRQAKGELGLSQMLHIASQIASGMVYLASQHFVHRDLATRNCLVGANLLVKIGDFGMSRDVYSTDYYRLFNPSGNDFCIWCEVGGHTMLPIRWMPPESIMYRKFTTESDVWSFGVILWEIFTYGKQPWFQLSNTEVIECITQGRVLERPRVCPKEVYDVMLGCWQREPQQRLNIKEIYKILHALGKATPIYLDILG

[38] = molecular target: Serine/threonine-protein kinase WNK1 (Homo sapiens) (UniProt Q9H4A3); conditions: Compound concentration 100.0 nM
[39] = molecular target: Serine/threonine-protein kinase 32B (Homo sapiens) (UniProt Q9NY57); conditions: Compound concentration 100.0 nM
Chain of Serine/threonine-protein kinase 32B (Homo sapiens) (Q9NY57 whole entry): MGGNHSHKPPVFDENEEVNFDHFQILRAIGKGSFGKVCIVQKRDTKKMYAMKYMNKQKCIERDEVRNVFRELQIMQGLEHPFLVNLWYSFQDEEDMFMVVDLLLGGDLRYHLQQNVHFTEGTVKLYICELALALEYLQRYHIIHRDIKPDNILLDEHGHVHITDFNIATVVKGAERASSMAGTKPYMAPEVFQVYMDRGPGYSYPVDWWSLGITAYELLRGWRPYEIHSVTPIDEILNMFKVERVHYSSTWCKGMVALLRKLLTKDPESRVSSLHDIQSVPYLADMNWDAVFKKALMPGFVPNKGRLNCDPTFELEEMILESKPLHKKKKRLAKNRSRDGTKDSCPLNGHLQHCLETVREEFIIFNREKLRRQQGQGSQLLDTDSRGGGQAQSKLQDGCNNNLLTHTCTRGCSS

[40] = molecular target: Beta-2 adrenergic receptor (Homo sapiens) (UniProt P07550); conditions: Compound concentration 10.0 uM
Chain of Beta-2 adrenergic receptor (Homo sapiens) (P07550 whole entry, looked up): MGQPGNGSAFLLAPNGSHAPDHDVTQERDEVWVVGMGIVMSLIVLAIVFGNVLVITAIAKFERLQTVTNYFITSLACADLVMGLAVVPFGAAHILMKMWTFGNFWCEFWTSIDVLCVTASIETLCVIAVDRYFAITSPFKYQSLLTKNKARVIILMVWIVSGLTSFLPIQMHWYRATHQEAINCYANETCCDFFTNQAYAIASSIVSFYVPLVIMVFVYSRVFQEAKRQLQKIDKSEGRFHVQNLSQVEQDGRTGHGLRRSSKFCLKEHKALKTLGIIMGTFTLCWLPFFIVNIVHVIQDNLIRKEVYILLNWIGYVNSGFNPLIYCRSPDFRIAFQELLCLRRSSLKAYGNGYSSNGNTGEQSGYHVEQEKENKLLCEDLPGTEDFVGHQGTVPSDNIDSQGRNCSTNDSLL

[41] = molecular target: GABA-A receptor; anion channel (Rattus norvegicus) (UniProt O09028+P15431+P18506+P18508+P19969+P20236+P23574+P23576+P28471+P28473+P30191+P62813+P63079+P63138+Q91ZM7+Q9ES14); conditions: Compound concentration 10.0 uM

CC(C)CC(=O)N1CCc2nc(-c3ccc(Br)cc3)nc(N(C)Cc3ccccc3)c2C1 [THPP-1-NC]
inactive: residual activity [1] 100% | residual activity [2] 100% | residual activity [3] 100% | residual activity [4] 100% | residual activity [5] 99% | residual activity [6] 100% | residual activity [7] 100% | residual activity [8] 62% | residual activity [9] 85% | residual activity [10] 63% | residual activity [11] 100% | residual activity [12] 100% | residual activity [13] 100% | residual activity [14] 100% | residual activity [15] 100% | residual activity [16] 100% | residual activity [17] 100% | residual activity [18] 100% | residual activity [19] 100% | residual activity [20] 100% | residual activity [21] 100% | residual activity [22] 100% | residual activity [23] 100% | residual activity [24] 98% | residual activity [25] 96% | residual activity [26] 100% | residual activity [27] 100% | residual activity [28] 100% | residual activity [29] 61% | residual activity [30] 96% | residual activity [31] 100% | residual activity [32] 100% | residual activity [33] 78% | residual activity [34] 100% | residual activity [35] 100% | residual activity [36] 100% | residual activity [37] 100% | residual activity [38] 100% | residual activity [39] 87% | inhibition [40] 5.63% | inhibition [41] -3.36%

COCCOc1nc(-c2ccc(Cl)nc2)nc2c1CN(C(=O)c1ncn3ccccc13)CC2 [THPP-1]
inactive: residual activity [1] 100% | residual activity [2] 100% | residual activity [3] 100% | residual activity [4] 100% | residual activity [5] 100% | residual activity [6] 100% | residual activity [7] 100% | residual activity [8] 63% | residual activity [9] 96% | residual activity [10] 61% | residual activity [11] 100% | residual activity [12] 100% | residual activity [13] 99% | residual activity [14] 88% | residual activity [15] 85% | residual activity [16] 99% | residual activity [17] 100% | residual activity [18] 100% | residual activity [19] 100% | residual activity [20] 100% | residual activity [21] 100% | residual activity [22] 100% | residual activity [23] 100% | residual activity [24] 83% | residual activity [25] 100% | residual activity [26] 100% | residual activity [27] 100% | residual activity [28] 100% | residual activity [29] 59% | residual activity [30] 100% | residual activity [31] 100% | residual activity [32] 100% | residual activity [33] 93% | residual activity [34] 100% | residual activity [35] 100% | residual activity [36] 100% | residual activity [37] 100% | residual activity [38] 100% | residual activity [39] 100% | inhibition [40] -0.65% | inhibition [41] 24.9%
